Reference: patent US9757427B2, “Combination comprising zidovudine and polymyxin” (HELPERBY THERAPEUTICS LIMITED, priority 2013, dated 2017)

Legend:
log phase Klebsiella = assay: time kill curve against log phase Klebsiella; format: cell-based
[1] = test system: log phase Escherichia coli and Klebsiella pneumoniae; assay: chequerboard method, MIC alone and in combination, log phase bacteria; format: cell-based; conditions: for MIC before combination: single agent, chequerboard
Source text: In relation to (b) above, methods for determining activity against log phase bacteria include a determination, under standard conditions (i.e. conditions known to those skilled in the art, such as those described in WO 2005014585, the disclosures of which document are hereby incorporated by reference), of Minimum Inhibitory Concentration (“MIC”) or Minimum Bactericidal Concentration (“MBC”) for a test compound. Specific examples of such methods are described below. In Vitro Activity of Zidovudine Combined Together with Colistin Against Log Phase Escherichia coli and Klebsiella pneumoniae Using Chequerboard Method

| Compound | time kill outcome (log phase Klebsiella; Colistin at 16 μg/ml) | MIC of colistin in combination ([1]; combined with 2 μg/ml of HT0120663) [µg/mL] | MIC before combination [1] [µg/mL] | time kill outcome after 6 hours (log phase Klebsiella; HT0120663 at 4 μg/ml, after the 6 hour kill) | log kill (log phase Klebsiella; HT0120663 at 4 μg/ml, at 6 hours) | MIC of HT0120663 in combination ([1]; combined with 2 μg/ml of colistin) [µg/mL] |
| --- | --- | --- | --- | --- | --- | --- |
| Colistin | inhibition up to 6 hours | 0.25 | 4 |  |  |  |
| Cc1cn([C@H]2C[C@H](N=[N+]=[N-])[C@@H](CO)O2)c(=O)[nH]c1=O [HT0120663, Zidovudine] |  |  | 4 | regrowth of the bacteria | about 1 log | 1 |
